Like-named read-outs stand apart in the source and are kept apart here.
What was measured:
human AT1 receptor = molecular target: T1, human AT1 receptor (Homo sapiens, UniProt P30556); test: Binding assay using human AT1 receptor-expressing CHO-K1 cell membrane fraction ([125I]-angiotensin II); conditions: 22.5 pM [125I]-angiotensin II, 9 μg AT1 membrane, 1 hr room temperature; read-out: AT1 receptor binding inhibitory action (IC50 (nM))
T1 construct: expressed in transfected cells; host or cells: CHO-K1
T1 sequence (P30556 1-359): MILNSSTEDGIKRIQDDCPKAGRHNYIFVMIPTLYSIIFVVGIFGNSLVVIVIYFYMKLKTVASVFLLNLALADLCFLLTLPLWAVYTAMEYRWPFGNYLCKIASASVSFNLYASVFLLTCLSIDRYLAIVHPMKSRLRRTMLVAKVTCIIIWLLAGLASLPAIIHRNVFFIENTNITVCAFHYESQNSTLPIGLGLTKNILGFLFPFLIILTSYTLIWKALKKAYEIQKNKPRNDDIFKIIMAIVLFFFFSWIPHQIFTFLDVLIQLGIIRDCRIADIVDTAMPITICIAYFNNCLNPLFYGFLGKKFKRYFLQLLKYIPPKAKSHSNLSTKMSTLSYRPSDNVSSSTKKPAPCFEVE
Experimental: The membrane fraction for human AT1 receptor binding assay was prepared as follows. CHO-K1 cell capable of stable expression of human AT1 receptor was cultured, recovered, suspended in homogenize buffer (10 mM NaHCO3 (pH 7.4), 5 mM EDTA, 1×Complete EDTA free) [manufactured by Roche, Switzerland], and homogenized. The homogenate was centrifuged at low-speed (900×g, 10 min, 4° C.), and the supernatant was recovered and ultracentrifuged (90,000×g, 1 hr, 4° C.). The supernatant was discarded, and the pellets were resuspended in resuspension buffer (50 mM Tris (pH 7.4), 1 mM EDTA, 1×Complete EDTA free).
The binding assay was performed in the presence of 22.5 pM [^125I]-angiotensin II [manufactured by PerkinElmer, USA], 9 μg of AT1 membrane and test compound in 100 μL (total reaction volume) of reaction buffer (50 mM Tris (pH 7.4), 10 mM MgCl2 supplemented or not supplemented with 0.3 mg/mL fatty acid-free bovine serum albumin [manufactured by Wako Pure Chemical Industries, Ltd., Japan]). The reaction mixture was incubated in 96 well polypropylene plate for 1 hr at room temperature, and the reaction was quenched by rapid filtration (96 well cell harvester) through a GF/C filter treated with wash buffer (50 mM Tris (pH 7.4)). Subsequently, the filter was washed 5 times with 0.3 mL of ice-cooled wash buffer. The filter was air-dried, and [^125I]-angiotensin II binding radioactivity was assayed with Top Count scintillation counter. Total binding was measured in the presence of 1% DMSO and nonspecific binding was measured in the presence of 1 μM CV-11974. The binding data was analyzed by GraphPad Prism program and the IC50 value (compound concentration showing 50% of the maximum value of inhibition percent) of the test compound was calculated.

PPARγ = molecular target: T2, PPARγ (Homo sapiens, UniProt P37231); test: Evaluation of PPARγ activating action (luciferase reporter in PPARγ:RXRα:4ERPP/CHO-K1 cells); assay type: cell-based; conditions: CHO-K1, 24 h, read-out: PPARγ activating action (activation % (10^−6 M))
T2 construct: expressed in transfected cells; host or cells: CHO-K1
T2 sequence (P37231 1-477 isoform P37231-2): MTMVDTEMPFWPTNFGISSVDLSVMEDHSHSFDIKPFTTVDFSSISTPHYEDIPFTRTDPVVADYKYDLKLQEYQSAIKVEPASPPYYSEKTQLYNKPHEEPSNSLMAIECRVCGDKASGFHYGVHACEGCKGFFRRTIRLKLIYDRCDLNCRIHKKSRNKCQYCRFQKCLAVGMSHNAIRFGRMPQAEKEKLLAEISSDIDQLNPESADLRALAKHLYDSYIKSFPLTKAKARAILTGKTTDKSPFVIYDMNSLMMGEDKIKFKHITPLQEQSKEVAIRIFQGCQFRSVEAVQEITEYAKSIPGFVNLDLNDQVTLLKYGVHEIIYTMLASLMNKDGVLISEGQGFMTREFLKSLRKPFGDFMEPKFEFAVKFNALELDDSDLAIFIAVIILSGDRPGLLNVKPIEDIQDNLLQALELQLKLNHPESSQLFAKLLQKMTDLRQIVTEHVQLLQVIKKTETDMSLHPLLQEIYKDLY
T2 sequence (P19793 1-462 partner): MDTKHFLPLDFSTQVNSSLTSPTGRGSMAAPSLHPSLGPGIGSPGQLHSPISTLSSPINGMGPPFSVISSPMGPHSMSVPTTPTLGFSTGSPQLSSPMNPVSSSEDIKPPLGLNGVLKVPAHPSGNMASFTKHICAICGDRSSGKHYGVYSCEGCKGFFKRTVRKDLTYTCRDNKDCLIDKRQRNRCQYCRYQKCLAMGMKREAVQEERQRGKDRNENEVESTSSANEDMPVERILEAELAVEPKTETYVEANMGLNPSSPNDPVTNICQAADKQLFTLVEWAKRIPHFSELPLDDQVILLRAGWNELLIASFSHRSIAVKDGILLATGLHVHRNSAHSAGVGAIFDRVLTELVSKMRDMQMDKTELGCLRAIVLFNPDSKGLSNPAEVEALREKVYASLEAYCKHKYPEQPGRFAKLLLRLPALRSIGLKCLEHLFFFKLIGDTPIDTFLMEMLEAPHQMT
Experimental: PPARγ:RXRα:4ERPP/CHO-K1 cells obtained in the following Reference Example 5 were cultured in F12 medium [manufactured by INVITROGEN, USA] containing 10% fetal bovine serum [manufactured by MOREGATE, Australia], seeded in a 96-well half area white plate [manufactured by Corning Coster Corporation, USA] at the density of 5×10^3 cells/well and cultured in a CO2 gas incubator at 37° C. overnight.
Then the medium was removed from the 96-well half area white plate, 45 μl of Ham's F12 medium containing 0.1% fatty acid-free bovine serum albumin (BSA) and 5 μl of test compound were added, and the cells were cultured in a CO2 gas incubator at 37° C. for 1 day. The medium was removed and 20 μl of PicaGene 7.5 [manufactured by TOYO INK MFG. CO., LTD.,.Japan] diluted 2-fold with HBSS (HANKS' BALANCED SALT SOLUTION) [manufactured by BIO WHITTAKER, USA] was added. After stirring, the luciferase activity was determined using 1420 ARVO Multilabel Counter [manufactured by PerkinElmer, USA].
The percent (%) was calculated from the luciferase activity of each test compound when the luciferase activity of the control compound (compound X: 5-[3-(4-{[2-(2-furyl)-5-methyl-1,3-oxazol-4-yl]methoxy}-3-methoxyphenyl)propyl]-1,3-oxazolidine-2,4-dione) (1 μM) was 100% and that of the test compound non-administration group was 0%.
A CHO-K1 cell cultured in a 150 cm^2 cell culture flask [manufactured by Corning Costar Corporation, USA] containing Ham's F12 medium [manufactured by INVITROGEN, USA] supplemented with 10% fetal bovine serum [manufactured by INVITROGEN, USA] was scraped by treating with 0.5 g/L trypsin-0.2 g/L EDTA (ethylenediaminetetraacetic acid) [manufactured by Life Technologies, Inc., USA], and then the cell was washed with PBS (Phosphate-buffered saline) [manufactured by INVITROGEN, USA], centrifuged (1000 rpm, 5 minutes) and suspended in PBS. Subsequently, DNA was introduced into the cell under the conditions shown below using GENE PULSER [manufactured by Bio-Rad Laboratories, USA].
Namely, to a cuvette having a 0.4 cm gap were added 8×10^6 cells and 10 μg of plasmid pVgRXR2-hPPARγ obtained in Reference Example 4 and 10 μg of reporter plasmid pGL3-4ERPP-TK neo obtained in Reference Example 3, which was subjected to electroporation at the voltage of 0.25 kV under the capacitance of 960 μF. Subsequently, the cell was transferred into a F12 medium containing 10% fetal bovine serum and cultured for 24 hours, and then the cell was scraped again and centrifuged, and then suspended in Ham's F12 medium containing 10% fetal bovine serum supplemented with 500 μg/ml of Geneticin [manufactured by INVITROGEN, USA] and 250 μg/ml of Zeocin [manufactured by INVITROGEN, USA]. The obtained suspension was diluted to the density of 10^4 cells/ml and inoculated in a 96-well plate [manufactured by Corning Costar Corporation, USA], which was cultured in a CO2 gas incubator at 37° C., whereby obtaining a Geneticin- and Zeocin-resistant transformant.
Subsequently, after the transformant cell line thus obtained was cultured in a 24-well plate [manufactured by Corning Costar Corporation, USA], a cell line in which the luciferase was expressed and induced, i.e., PPARγ:RXRα:4ERPP/CHO-K1 cell was selected by the addition of 10 μM pioglitazone hydrochloride.

[1] = test compound 10^−6 M, luciferase activity relative to control compound X (1 μM) = 100%, non-administration group = 0%

| SMILES | IC50 (human AT1 receptor) | activation at 1 µM (PPARγ; [1]) | activation at 1 µM (PPARγ) |
| --- | --- | --- | --- |
| CCCCc1nc(C)n(Cc2ccc(OC)cc2)c(=O)c1Cc1ccc(-c2ccccc2-c2noc(=O)[nH]2)cc1 [Example 58, 6-butyl-3-(4-methoxybenzyl)-2-methyl-5-{[2′-(5-oxo-4,5-dihydro-1,2,4-oxadiazol-3-yl)biphenyl-4-yl]methyl}pyrimidin-4(3H)-one] | 1.5 nM | 55.1% |  |
| CCCCc1nc(C)n(Cc2nc3ccccc3s2)c(=O)c1Cc1ccc(-c2ccccc2-c2noc(=O)[nH]2)cc1 [Example 64, 3-(1,3-benzothiazol-2-ylmethyl)-6-butyl-2-methyl-5-{[2′-(5-oxo-4,5-dihydro-1,2,4-oxadiazol-3-yl)biphenyl-4-yl]methyl}pyrimidin-4(3H)-one] | 2 nM | 59.9% |  |
| CCCCc1nc(C)n(C(C)c2ccccc2)c(=O)c1Cc1ccc(-c2ccccc2-c2noc(=O)[nH]2)cc1 (stereo not shown) [Example 67, 6-butyl-2-methyl-5-{[2′-(5-oxo-4,5-dihydro-1,2,4-oxadiazol-3-yl)biphenyl-4-yl]methyl}-3-(1-phenylethyl)pyrimidin-4(3H)-one] | 2 nM | 49.4% |  |
| CCCCc1nc(C)n(Cc2ccc(OC)nc2)c(=O)c1Cc1ccc(-c2ccccc2-c2noc(=O)[nH]2)cc1 [Example 71, 6-butyl-3-[(6-methoxypyridin-3-yl)methyl]-2-methyl-5-{[2′-(5-oxo-4,5-dihydro-1,2,4-oxadiazol-3-yl)biphenyl-4-yl]methyl}pyrimidin-4(3H)-one] | 1.8 nM | 46.3% |  |
| CCCc1nc(C)n(CC2CCCCO2)c(=O)c1Cc1ccc(-c2ccccc2-c2noc(=O)[nH]2)cc1 (stereo not shown) [Example 81, 2-methyl-5-{[2′-(5-oxo-4,5-dihydro-1,2,4-oxadiazol-3-yl)biphenyl-4-yl]methyl}-6-propyl-3-(tetrahydro-2H-pyran-2-ylmethyl)pyrimidin-4(3H)-one] | 1.6 nM | 62.9% |  |
| CCCCc1nc(CC)n(Cc2ccccc2)c(=O)c1Cc1ccc(-c2ccccc2-c2noc(=O)[nH]2)cc1 [Example 105, 3-benzyl-6-butyl-2-ethyl-5-{[2′-(5-oxo-4,5-dihydro-1,2,4-oxadiazol-3-yl)biphenyl-4-yl]methyl}pyrimidin-4(3H)-one] | 1.9 nM |  | 64.1% |

Now from value to compound, other results behind:

| IC50 (human AT1 receptor) | activation at 1 µM (PPARγ; [1]) | SMILES | activation at 1 µM (PPARγ) |
| --- | --- | --- | --- |
| 1.7 nM | 31.2% | CCCc1nc(C)n(-c2ccc(OC(C)C)cc2)c(=O)c1Cc1ccc(-c2ccccc2-c2noc(O)n2)cc1 [Example 88, 3-(4-isopropoxyphenyl)-2-methyl-5-{[2′-(5-oxo-4,5-dihydro-1,2,4-oxadiazol-3-yl)biphenyl-4-yl]methyl}-6-propylpyrimidin-4(3H)-one] |  |
| 1.8 nM | 41.5% | CCCCc1nc(C)n(CCc2ccc(OC)cc2)c(=O)c1Cc1ccc(-c2ccccc2-c2noc(=O)[nH]2)cc1 [Example 94, 6-butyl-3-[2-(4-methoxyphenyl)ethyl]-2-methyl-5-{[2′-(5-oxo-4,5-dihydro-1,2,4-oxadiazol-3-yl)biphenyl-4-yl]methyl}pyrimidin-4(3H)-one] |  |
| 1.5 nM | 50.2% | CCCCc1nc(CF)n(Cc2ccccc2)c(=O)c1Cc1ccc(-c2ccccc2-c2noc(=O)[nH]2)cc1 [Example 103, 3-benzyl-6-butyl-2-(fluoromethyl)-5-{[2′-(5-oxo-4,5-dihydro-1,2,4-oxadiazol-3-yl)biphenyl-4-yl]methyl}pyrimidin-4(3H)-one] |  |
| 2 nM | 60% | CCCCc1nc(OC)n(Cc2ccccc2)c(=O)c1Cc1ccc(-c2ccccc2-c2noc(=O)[nH]2)cc1 [Example 107, 3-benzyl-6-butyl-2-methoxy-5-{[2′-(5-oxo-4,5-dihydro-1,2,4-oxadiazol-3-yl)biphenyl-4-yl]methyl}pyrimidin-4(3H)-one] |  |
| 2.2 nM | 31.7% | CCCCc1nc(OC)n(-c2ccccc2)c(=O)c1Cc1ccc(-c2ccccc2-c2noc(=O)[nH]2)cc1 [Example 108, 6-butyl-2-methoxy-5-{[2′-(5-oxo-4,5-dihydro-1,2,4-oxadiazol-3-yl)biphenyl-4-yl]methyl}-3-phenylpyrimidin-4(3H)-one] |  |
